The values below come from patent US12209079B2 (GENERAL INCORPORATED ASSOCIATION PHARMA VALLEY PROJECT …, priority 2017, dated 2025).

Each structure is given as a SMILES string. Counter-ions that a name gives are not always drawn.

Assay [1] has as its target T1, IDO in A431 cells (Homo sapiens, UniProt P14902).
T1 construct: endogenous in cells; host or cells: A431 cells, IFN-γ stimulated
Put plainly: IDO cell-based assay, kynurenine production in IFN-γ stimulated A431 cells. The following applies: A-431, 24 h; final concentration of the compound 10 μM; rate relative to culture without compound. In short, it runs like this:
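Kynurenine output was read by absorbance at 460 nm after p-dimethylbenzaldehyde/trichloroacetic acid reagent, background-corrected, and given as % of untreated wells. Before the read, cells in 178 μM L-tryptophan medium had 1 h compound preincubation, then 24 h IFN-γ stimulation (added as 100 ng/mL dilution).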

The target of assay [2] is rhIDO (recombinant human IDO) (Homo sapiens, UniProt P14902). Put plainly: Enzyme assay using rhIDO (rate of kynurenine production). The assay is classed as biochemical. The following applies: 2 h; final concentration of the compound 10 μM; rate relative to reaction without compound; read-out: rhIDO-mediated kynurenine production. An outline of the steps: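 Kynurenine formation, expressed as % of uncompounded reaction after background subtraction, was read by absorbance at 490 nm following TCA stop, 50 °C hydrolysis and Ehrlich-type p-dimethylbenzaldehyde staining. Recombinant human IDO with ascorbate/methylene blue/catalase was pre-exposed to compound 10 min, then reacted 120 min at 37 °C after adding 2 mM tryptophan stock.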
Sequence of rhIDO (recombinant human IDO) (P14902 whole entry): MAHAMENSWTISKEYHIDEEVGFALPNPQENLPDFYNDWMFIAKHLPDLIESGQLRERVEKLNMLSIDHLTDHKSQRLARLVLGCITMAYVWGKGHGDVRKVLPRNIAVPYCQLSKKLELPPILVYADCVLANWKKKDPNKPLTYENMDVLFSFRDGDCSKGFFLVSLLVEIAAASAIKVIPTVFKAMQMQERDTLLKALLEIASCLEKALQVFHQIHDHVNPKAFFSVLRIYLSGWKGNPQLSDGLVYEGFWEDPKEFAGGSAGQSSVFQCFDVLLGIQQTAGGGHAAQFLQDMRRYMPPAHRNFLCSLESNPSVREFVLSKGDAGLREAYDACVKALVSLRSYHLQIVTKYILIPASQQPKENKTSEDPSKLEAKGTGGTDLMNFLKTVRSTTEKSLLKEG

The target in assay [3] is T2, TDO in A172 cells (Homo sapiens, UniProt P48775).
T2 construct: endogenous in cells; host or cells: A172 cells
T2 sequence (P48775 whole entry): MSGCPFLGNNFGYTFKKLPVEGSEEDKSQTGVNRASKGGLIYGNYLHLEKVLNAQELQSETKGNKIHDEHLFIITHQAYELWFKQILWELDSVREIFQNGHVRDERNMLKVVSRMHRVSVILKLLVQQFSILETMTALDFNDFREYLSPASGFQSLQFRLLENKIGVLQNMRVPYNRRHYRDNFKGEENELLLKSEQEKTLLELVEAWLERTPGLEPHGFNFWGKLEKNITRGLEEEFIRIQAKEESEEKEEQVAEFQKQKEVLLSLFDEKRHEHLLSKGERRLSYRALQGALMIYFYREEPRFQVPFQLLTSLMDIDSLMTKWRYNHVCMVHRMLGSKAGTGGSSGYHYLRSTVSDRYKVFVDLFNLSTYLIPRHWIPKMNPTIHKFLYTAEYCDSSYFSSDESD
Put plainly: TDO cell-based assay, kynurenine production in A172 cells. The settings on record: A 172; final concentration of the compound 10 μM; rate relative to culture without compound. In short, it runs like this:
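A172 cells were preincubated with compound for 1 h, then given L-tryptophan (final 524 μM) for 24 h at 37 °C. Kynurenine was read at 460 nm after p-dimethylbenzaldehyde/TCA reagent, background-subtracted, and expressed as % of no-compound production.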

The target of assay [4] is rhTDO (recombinant human TDO) (Homo sapiens, UniProt P48775). Put plainly: Enzyme assay using rhTDO (rate of kynurenine production). The class given is biochemical. The following applies: 2 h; final concentration of the compound 10 μM; rate relative to reaction without compound; read-out: rhTDO-mediated kynurenine production. An outline of the steps:
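Kynurenine output, as percent of untreated control after background subtraction, read at 490 nm with p-dimethylbenzaldehyde following TCA quench and 15 min heating at 50 °C. Reaction: rhTDO with compound, 10 min preincubation then 120 min at 37 °C, started by 20 mM tryptophan stock, in phosphate/ascorbate/methylene blue/catalase.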

T1 sequence (P14902 whole entry): as the sequence (P14902 whole entry) above
Sequence of rhTDO (recombinant human TDO) (P48775 whole entry): as the sequence (P48775 whole entry) above

As to `COc1ccc(CCN2CN=C(SCc3ccc(F)cc3CSC3=NCN(CCc4ccc(OC)cc4)CN3)NC2)cc1` [Compound 147, 6,6′-(((4-Fluoro-1,2-phenylene)bis(methylene))bis(sulfanediyl))bis(3-(4-methoxyphenethyl)-1,2,3,4-tetrahydro-1,3,5-triazine)], the remaining activity at 10 µM in assay [1] is 16%; in assay [2], 32%; in assay [3], 16%; in assay [4], 10%.

Consider `COc1ccc(CCN2CN=C(SCc3ccc(Br)cc3CSC3=NCN(CCc4ccc(OC)cc4)CN3)NC2)cc1` [Compound 148, 6,6′-(((4-Bromo-1,2-phenylene)bis(methylene))bis(sulfanediyl))bis(3-(4-methoxyphenethyl)-1,2,3,4-tetrahydro-1,3,5-triazine)], for which the remaining activity at 10 µM in assay [1] worked out at 7%; in assay [2], 13%; in assay [3], 18%; in assay [4], 8%.

Consider `FC(F)(F)c1cccc(CCN2CN=C(SCc3ccc(Br)cc3CSC3=NCN(CCc4cccc(C(F)(F)F)c4)CN3)NC2)c1` [Compound 149, 6,6′-(((4-Bromo-1,2-phenylene)bis(methylene))bis(sulfanediyl))bis(3-(3-(trifluoromethyl)phenethyl)-1,2,3,4-tetrahydro-1,3,5-triazine)], for which the remaining activity at 10 µM in assay [1] was 7%; in assay [2] it was 8%; in assay [3], 17%; in assay [4], 11%.

On to `Fc1ccc(CSC2=NCN(CCc3cccc(C(F)(F)F)c3)CN2)c(CSC2=NCN(CCc3cccc(C(F)(F)F)c3)CN2)c1` [Compound 150, 6,6′-(((4-Fluoro-1,2-phenylene)bis(methylene))bis(sulfanediyl))bis(3-(3-(trifluoromethyl)phenethyl)-1,2,3,4-tetrahydro-1,3,5-triazine)], for which the remaining activity at 10 µM in assay [1] was 15%; in assay [2], 23%; in assay [3] it was 13%; in assay [4] it was 11%.

As for `N=C(N)SCc1sc2ccccc2c1CSC(=N)N` [Compound 151, Benzo[b]thiophene-2,3-diylbis(methylene) dicarbamimidothioate dihydrobromide], the remaining activity at 10 µM is 33% in assay [1], 13% in assay [2], 76% in assay [3] and 11% in assay [4].

As to `FC(F)(F)c1cccc(CCN2CN=C(SCc3cc(Cl)c(Cl)cc3CSC3=NCN(CCc4cccc(C(F)(F)F)c4)CN3)NC2)c1` [Compound 152, 6,6′-(((4,5-Dichloro-1,2-phenylene)bis(methylene))bis(sulfanediyl))bis(3-(3-(trifluoromethyl)phenethyl)-1,2,3,4-tetrahydro-1,3,5-triazine)], the remaining activity at 10 µM in assay [1] amounted to 9%; in assay [2], 7%; in assay [3], 6%; in assay [4], 7%.

Take `COc1cccc(CCN2CN=C(SCc3cc(Cl)c(Cl)cc3CSC3=NCN(CCc4cccc(OC)c4)CN3)NC2)c1` [Compound 153, 6,6′-(((4,5-Dichloro-1,2-phenylene)bis(methylene))bis(sulfanediyl))bis(3-(3-methoxyphenethyl)-1,2,3,4-tetrahydro-1,3,5-triazine)]: the remaining activity at 10 µM in assay [1] was found to be 12%; in assay [2], 8%; in assay [3], 9%; in assay [4] it was 6%.
